Our source for the IC50 values is US12440484B2, “1,3,4-oxadiazole homophthalimide derivative compounds as histone deacetylase 6 inhibitor, and the pharmaceutical composition comprising the same” (Chong Kun Dang Pharmaceutical Corp., priority 2019, dated 2025).

Experiment [1] addresses HDAC6 human recombinant (Homo sapiens (Human), UniProt Q9UBN7). Put plainly: HDAC enzyme activity inhibition (in vitro), HDAC6 assay. It is filed as biochemical. As to conditions: samples at 0.1, 1, 10, 100 and 1000 nM; 37° C. 60 minutes; fluorescence Ex 390, Em 460.
Experiment [2] deals with HDAC1 (Homo sapiens (Human), UniProt Q13547). Nature of the experiment: HDAC enzyme activity inhibition (in vitro), HDAC1 Fluorimetric Drug Discovery Assay Kit. It is filed as biochemical. As to conditions: samples at 100, 1000 and 10000 nM; 37° C. 60 minutes; fluorescence Ex 390, Em 460.
Chain of HDAC1 (Q13547 whole entry): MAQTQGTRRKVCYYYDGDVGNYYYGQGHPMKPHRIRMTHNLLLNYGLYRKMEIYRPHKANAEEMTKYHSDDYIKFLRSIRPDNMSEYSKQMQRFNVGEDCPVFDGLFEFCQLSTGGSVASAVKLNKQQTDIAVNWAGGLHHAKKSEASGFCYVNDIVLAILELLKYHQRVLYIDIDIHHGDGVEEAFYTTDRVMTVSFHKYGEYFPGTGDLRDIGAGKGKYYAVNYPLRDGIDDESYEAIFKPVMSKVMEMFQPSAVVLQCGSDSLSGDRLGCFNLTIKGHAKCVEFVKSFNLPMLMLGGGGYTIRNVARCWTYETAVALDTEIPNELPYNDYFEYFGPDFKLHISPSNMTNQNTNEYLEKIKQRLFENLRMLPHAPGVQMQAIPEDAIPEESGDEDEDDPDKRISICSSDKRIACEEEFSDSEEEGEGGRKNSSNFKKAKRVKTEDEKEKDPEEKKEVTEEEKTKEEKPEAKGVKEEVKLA

Chain of HDAC6 human recombinant (Q9UBN7 whole entry): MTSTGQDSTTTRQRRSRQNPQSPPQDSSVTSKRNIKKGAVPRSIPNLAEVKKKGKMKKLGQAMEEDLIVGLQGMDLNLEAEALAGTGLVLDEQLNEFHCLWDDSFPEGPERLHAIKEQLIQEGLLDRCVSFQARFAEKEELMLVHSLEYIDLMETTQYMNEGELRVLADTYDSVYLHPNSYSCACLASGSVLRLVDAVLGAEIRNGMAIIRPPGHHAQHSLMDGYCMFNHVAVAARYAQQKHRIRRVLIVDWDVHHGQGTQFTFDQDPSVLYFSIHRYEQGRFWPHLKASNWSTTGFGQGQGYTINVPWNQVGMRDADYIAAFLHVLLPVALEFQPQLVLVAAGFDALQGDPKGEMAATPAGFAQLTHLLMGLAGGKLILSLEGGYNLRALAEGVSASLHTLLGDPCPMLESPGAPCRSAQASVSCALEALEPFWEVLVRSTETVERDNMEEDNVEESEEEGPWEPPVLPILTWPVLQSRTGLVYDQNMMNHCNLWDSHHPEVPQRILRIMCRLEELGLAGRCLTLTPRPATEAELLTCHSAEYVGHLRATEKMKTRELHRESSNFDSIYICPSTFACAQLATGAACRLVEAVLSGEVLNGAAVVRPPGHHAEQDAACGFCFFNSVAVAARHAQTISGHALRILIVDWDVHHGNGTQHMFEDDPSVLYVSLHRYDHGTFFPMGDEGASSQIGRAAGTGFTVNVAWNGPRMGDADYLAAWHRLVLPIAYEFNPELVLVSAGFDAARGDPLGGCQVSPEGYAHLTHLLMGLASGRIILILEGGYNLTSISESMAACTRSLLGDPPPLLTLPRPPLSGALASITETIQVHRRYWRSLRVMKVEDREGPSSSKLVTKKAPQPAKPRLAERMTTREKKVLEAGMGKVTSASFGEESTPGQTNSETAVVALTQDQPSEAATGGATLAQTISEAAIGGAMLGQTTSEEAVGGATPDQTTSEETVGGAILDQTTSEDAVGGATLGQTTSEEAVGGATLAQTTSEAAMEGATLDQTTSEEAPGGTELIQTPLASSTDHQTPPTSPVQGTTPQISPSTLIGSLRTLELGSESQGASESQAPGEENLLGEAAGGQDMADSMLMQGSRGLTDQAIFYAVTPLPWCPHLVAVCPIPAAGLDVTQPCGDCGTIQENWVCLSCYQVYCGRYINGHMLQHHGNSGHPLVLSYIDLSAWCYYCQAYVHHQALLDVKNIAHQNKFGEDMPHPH

With `CCN1CCC(c2ccc3c(c2)C(=O)N(Cc2ccc(-c4nnc(C(F)F)o4)cn2)C(=O)C3(C)C)CC1` [Compound 68, 2-((5-(5-(difluoromethyl)-1,3,4-oxadiazole-2-yl)pyridine-2-yl)methyl)-7-(1-ethylpiperidine-4-yl)-4,4-dimethylisoquinoline-1,3(2H,4H)-dione], the IC50 (usually the point on the concentration scale where inhibition reaches its midpoint) in experiment [1] is 20 nM; in experiment [2], > 10000 nM.
The corresponding values for `O=C1c2ccc(Br)cc2C2(CCC2)C(=O)N1Cc1ccc(-c2nnc(C(F)F)o2)cn1` [Compound 106, 6′-bromo-2′-((5-(5-(difluoromethyl)-1,3,4-oxadiazole-2-yl)pyridine-2-yl)methyl)-1′H-spiro[cyclobutane-1,4′-isoquinoline]-1′,3′(2′H)-dione] are 48 nM and > 10000 nM.
The corresponding values for `CN1CCN(c2ccc3c(c2)C(C)(C)C(=O)N(Cc2ncc(-c4nnc(C(F)F)o4)cn2)C3=O)CC1` [Compound 153, 2-((5-(5-(difluoromethyl)-1,3,4-oxadiazole-2-yl)pyrimidine-2-yl)methyl)-4,4-dimethyl-6-(4-methylpiperazine-1-yl)isoquinoline-1,3(2H,4H)-dione] are 118 nM and > 10000 nM.
Taken in the same sequence, the figures for `CC1(C)C(=O)N(Cc2ccc(-c3nnc(C(F)F)o3)cn2)C(=O)c2c(-c3ccoc3)cccc21` [Compound 95, 2-((5-(5-(difluoromethyl)-1,3,4-oxadiazole-2-yl)pyridine-2-yl)methyl)-8-(furan-3-yl)-4,4-dimethylisoquinoline-1,3(2H,4H)-dione] were 59 nM and > 10000 nM.
`Cn1c(=O)n(Cc2ccc(-c3nnc(C(F)F)o3)cn2)c(=O)c2ccc(-c3ccccc3F)cc21` [Compound 99, 3-((5-(5-(difluoromethyl)-1,3,4-oxadiazole-2-yl)pyridine-2-yl)methyl)-7-(2-fluorophenyl)-1-methylquinazoline-2,4(1H,3H)-dione]: the values for the IC50 in experiment [1] and in experiment [2] were 149 nM and > 10000 nM, respectively.
The corresponding values for `CC1(C)C(=O)N(Cc2ccc(-c3nnc(C(F)F)o3)cn2)C(=O)c2cc(C3=CCSCC3)ccc21` [Compound 121, 2-((5-(5-(difluoromethyl)-1,3,4-oxadiazole-2-yl)pyridine-2-yl)methyl)-7-(3,6-dihydro-2H-thiopyran-4-yl)-4,4-dimethylisoquinoline-1,3(2H,4H)-dione] are 36 nM and > 10000 nM.
Taken in the same sequence, the figures for `Cc1noc(C)c1-c1cccc2c1C(=O)N(Cc1ccc(-c3nnc(C(F)F)o3)cn1)C(=O)C2(C)C` [Compound 96, 2-((5-(5-(difluoromethyl)-1,3,4-oxadiazole-2-yl)pyridine-2-yl)methyl)-8-(3,5-dimethylisooxazole-4-yl)-4,4-dimethylisoquinoline-1,3(2H,4H)-dione] were 88 nM and > 10000 nM.
Taken in the same sequence, the figures for `CC1(C)C(=O)N(Cc2ccc(-c3nnc(C(F)F)o3)cn2)C(=O)c2cc(C3CCN(C4CCC4)CC3)ccc21` [Compound 145, 7-(1-cyclobutylpiperidine-4-yl)-2-((5-(5-(difluoromethyl)-1,3,4-oxadiazole-2-yl)pyridine-2-yl)methyl)-4,4-dimethylisoquinoline-1,3(2H,4H)-dione] were 37 nM and > 10000 nM.
On to `COc1ccc(-c2cccc3c2C(=O)N(Cc2ccc(-c4nnc(C(F)F)o4)cn2)C(=O)C3(C)C)cn1` [Compound 94, 2-((5-(5-(difluoromethyl)-1,3,4-oxadiazole-2-yl)pyridine-2-yl)methyl)-8-(6-methoxypyridine-3-yl)-4,4-dimethylisoquinoline-1,3(2H,4H)-dione], for which the IC50 was 116 nM in experiment [1] and > 10000 nM in experiment [2].
The corresponding values for `COc1ccc(Cn2c(=O)n(Cc3ccc(-c4nnc(C(F)F)o4)cn3)c(=O)c3cc(F)ccc32)cc1` [Compound 66, 3-((5-(5-(difluoromethyl)-1,3,4-oxadiazole-2-yl)pyridine-2-yl)methyl)-6-fluoro-1-(4-methoxybenzyl)quinazoline-2,4(1H,3H)-dione] are 216 nM and > 10000 nM.
On to `CC1(C)C(=O)N(Cc2ccc(-c3nnc(C(F)F)o3)cn2)C(=O)c2ccc(N3CCN(C4COC4)CC3)cc21` [Compound 30, 2-((5-(5-(difluoromethyl)-1,3,4-oxadiazole-2-yl)pyridine-2-yl)methyl)-4,4-dimethyl-6-(4-(oxetan-3-yl)piperazine-1-yl)isoquinoline-1,3(2H,4H)-dione], for which the IC50 is 46 nM in experiment [1] and > 10000 nM in experiment [2].
The corresponding values for `CCN1CCN(c2ccc3c(c2)C(=O)N(Cc2ccc(-c4nnc(C(F)F)o4)cn2)C(=O)C3(C)C)CC1` [Compound 129, 2-((5-(5-(difluoromethyl)-1,3,4-oxadiazole-2-yl)pyridine-2-yl)methyl)-7-(4-ethylpiperazine-1-yl)-4,4-dimethylisoquinoline-1,3(2H,4H)-dione] are 26 nM and > 10000 nM.
Taken in the same sequence, the figures for `Cn1c(=O)n(Cc2ccc(-c3nnc(C(F)F)o3)cn2)c(=O)c2cc(-c3cccnc3)ccc21` [Compound 91, 3-((5-(5-(difluoromethyl)-1,3,4-oxadiazole-2-yl)pyridine-2-yl)methyl)-1-methyl-6-(pyridine-3-yl)quinazoline-2,4(1H,3H)-dione] were 33 nM and > 10000 nM.
Taken in the same sequence, the figures for `O=C1c2ccccc2C2(CCC2)C(=O)N1Cc1ccc(-c2nnc(C(F)F)o2)cc1F` [Compound 3, 2′-(4-(5-(difluoromethyl)-1,3,4-oxadiazole-2-yl)-2-fluorobenzyl)-1′H-spiro[cyclobutane-1,4′-isoquinoline]-1′,3′(2′H)-dione] were 318 nM and > 10000 nM.
Take `CC1(C)C(=O)N(Cc2ccc(-c3nnc(C(F)F)o3)cn2)C(=O)c2cc(C3CCN(CC(F)(F)F)CC3)ccc21` [Compound 135, 2-((5-(5-(difluoromethyl)-1,3,4-oxadiazole-2-yl)pyridine-2-yl)methyl)-4,4-dimethyl-7-(1-(2,2,2-trifluoroethyl)piperidine-4-yl)isoquinoline-1,3(2H,4H)-dione]: the IC50 in experiment [1] was 100 nM; in experiment [2] it was > 10000 nM.
The corresponding values for `CC(=O)N1CCC(c2ccc3c(c2)C(=O)N(Cc2ccc(-c4nnc(C(F)F)o4)cn2)C(=O)C3(C)C)CC1` [Compound 127, 7-(1-acetylpiperidine-4-yl)-2-((5-(5-(difluoromethyl)-1,3,4-oxadiazole-2-yl)pyridine-2-yl)methyl)-4,4-dimethylisoquinoline-1,3(2H,4H)-dione] are 17 nM and > 10000 nM.
Regarding `CC1(C)C(=O)N(Cc2ccc(-c3nnc(C(F)F)o3)cn2)C(=O)c2ccc(C3CCN(C4COC4)CC3)cc21` [Compound 61, 2-((5-(5-(difluoromethyl)-1,3,4-oxadiazole-2-yl)pyridine-2-yl)methyl)-4,4-dimethyl-6-(1-(oxetan-3-yl)piperidine-4-yl)isoquinoline-1,3(2H,4H)-dione], the IC50 in experiment [1] was 35 nM; in experiment [2], > 10000 nM.
Taken in the same sequence, the figures for `Cn1c(=O)n(Cc2ccc(-c3nnc(C(F)F)o3)cn2)c(=O)c2cc(-c3ccccc3F)ccc21` [Compound 89, 3-((5-(5-(difluoromethyl)-1,3,4-oxadiazole-2-yl)pyridine-2-yl)methyl)-6-(2-fluorophenyl)-1-methylquinazoline-2,4(1H,3H)-dione] were 54 nM and > 10000 nM.
The corresponding values for `O=c1c2ccccc2n(CCN2CCCCC2)c(=O)n1Cc1ccc(-c2nnc(C(F)F)o2)cc1` [Compound 11, 3-(4-(5-(difluoromethyl)-1,3,4-oxadiazole-2-yl)benzyl)-1-(2-(piperidine-1-yl)ethyl)quinazoline-2,4(1H,3H)-dione] are 1020 nM and > 10000 nM.
`O=C1c2ccccc2C(=O)N1Cc1ccc(-c2nnc(C(F)F)o2)cc1F` [Compound 2, 2-(4-(5-(difluoromethyl)-1,3,4-oxadiazole-2-yl)-2-fluorobenzyl)isoindoline-1,3-dione]: the IC50 in experiment [1] was 561 nM; in experiment [2], > 10000 nM.
Taken in the same sequence, the figures for `CCC1(CC)C(=O)N(Cc2ccc(-c3nnc(C(F)F)o3)cn2)C(=O)c2ccc(N3CCN(C(C)=O)CC3)cc21` [Compound 136, 6-(4-acetylpiperazine-1-yl)-2-((5-(5-(difluoromethyl)-1,3,4-oxadiazole-2-yl)pyridine-2-yl)methyl)-4,4-diethylisoquinoline-1,3(2H,4H)-dione] were 55 nM and > 10000 nM.
The corresponding values for `CN(C)CCN(C)c1ccc2c(c1)C(C)(C)C(=O)N(Cc1ccc(-c3nnc(C(F)F)o3)cn1)C2=O` [Compound 38, 2-((5-(5-(difluoromethyl)-1,3,4-oxadiazole-2-yl)pyridine-2-yl)methyl)-6-((2-(dimethylamino)ethyl)(methyl)amino)-4,4-dimethylisoquinoline-1,3(2H,4H)-dione] are 24 nM and > 10000 nM.
For `CC(=O)N1CCN(c2ccc3c(c2)C(C)(C)C(=O)N(Cc2ccc(-c4nnc(C(F)F)o4)cn2)C3=O)CC1` [Compound 34, 6-(4-acetylpiperazine-1-yl)-2-((5-(5-(difluoromethyl)-1,3,4-oxadiazole-2-yl)pyridine-2-yl)methyl)-4,4-dimethylisoquinoline-1,3(2H,4H)-dione], the IC50 is 27 nM in experiment [1] and > 10000 nM in experiment [2].
Taken in the same sequence, the figures for `CC(C)N1CC=C(c2ccc3c(=O)n(Cc4ccc(-c5nnc(C(F)F)o5)cn4)c(=O)n(C)c3c2)CC1` [Compound 124, 3-((5-(5-(difluoromethyl)-1,3,4-oxadiazole-2-yl)pyridine-2-yl)methyl)-7-(1-isopropyl-1,2,3,6-tetrahydropyridine-4-yl)-1-methylquinazoline-2,4(1H,3H)-dione] were 38 nM and > 10000 nM.
Regarding `Cn1c(=O)n(Cc2ccc(-c3nnc(C(F)F)o3)cn2)c(=O)c2ccc(Br)cc21` [Compound 97, 7-bromo-3-((5-(5-(difluoromethyl)-1,3,4-oxadiazole-2-yl)pyridine-2-yl)methyl)-1-methylquinazoline-2,4(1H,3H)-dione], the IC50 is 61 nM in experiment [1] and > 10000 nM in experiment [2].
